System: mutans streptococci
Assay: Inhibition of growth and adherence of mutans streptococci in vitro by zinc salts
Assay type: cell-based
Details: 0.5% zinc solution
From the text: In another preferred embodiment of the invention, the formulation includes one or more zinc salt or other source of the zinc ion. Metabolically, zinc is a critical nutrient in the synthesis of insulin and the metabolism of carbohydrates. From a dental perspective, cariogenic bacteria enzymatically produce an insoluble glucan deposit from simple sugars present in the mouth that firmly adheres to the enamel tooth surface.

Molecule | adherence of mutans streptococci | growth of mutans streptococci
[Cl-].[Cl-].[Zn+2] [zinc chloride] | inhibited | inhibited
zinc ascorbate | inhibited | inhibited

Source: US9101148B2, “Carbohydrate modifying agent and drinks containing the modifying agent” (SBS Food Group LLC, priority 2001, dated 2015)
